Bounds are passed on as bounds.

Assay [1] addresses T1, PRMT5 (Homo sapiens, UniProt O14744).
T1 construct: purchased Viva (custom protein)
Nature of the assay: PRMT5 biochemical IC50 assay with SAM as cofactor. As to conditions: PRMT5, SAM as cofactor; read-out: SAM IC50.

Assay [2] deals with T1, PRMT5. The experiment in a line: PRMT5 biochemical IC50 assay with no cofactor. To be noted: PRMT5, no cofactor; read-out: No Cofactor/rel IC50. The source says:
Table 1 indicates IC50 values (μM) against PRMT5 for exemplary compounds in the presence of SAM as cofactor, with no cofactor, and with MTA as cofactor, respectively (columns 4-6). […] Ki values can be calculated from the IC50 values as described in the Examples section. As detailed in the Examples section, for the assay performed in the presence of SAM, IC50=Ki×1.5 (Ki=IC50/1.5).

For assay [3], the target named is T1, PRMT5. The experiment in a line: PRMT5 biochemical IC50 assay with MTA as cofactor. To be noted: PRMT5, MTA as cofactor; read-out: MTA IC50.
The subject of assay [4] is HAP1 MTAP-intact cell line. Nature of the assay: SDMA in-cell western assay, HAP1 MTAP-intact. It is filed as cell-based. As to conditions: Homo sapiens, HAP1, SDMA in-cell western, HAP1 MTAP-intact; read-out: MTAP HAP1 intact IC50. The method, boiled down: (§1)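 Compounds were tested in HAP1 cells differing only in MTAP status (endogenous expression versus null). Cellular SDMA levels were then measured by in-cell western, giving an IC50 in each background.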

Assay [5] concerns HAP1 MTAP-deleted cell line. The experiment in a line: SDMA in-cell western assay, HAP1 MTAP-deleted. To be noted: for IC50: Homo sapiens, HAP1, SDMA in-cell western, HAP1 MTAP-deleted, read-out: HAP1 MTAP deleted IC50; for MTAP intact/deleted ratio: IC50 ratio HAP1 MTAP-intact / HAP1 MTAP-deleted, SDMA in-cell western. It is filed as cell-based. Put shortly:
as §1

The test system of assay [6] is HAP1 MTAP-deleted cell line. The experiment in a line: Viability assay, MTAP-deleted cell line. To be noted: Homo sapiens, HAP1, viability assay, MTAP-deleted cell line; read-out: HAP1 MTAP deleted viability. In kind it is cell-based. The source says:
Table 1 additionally indicates IC50 values in a viability assay for the MTAP-deleted cell line (column 10), indicating the effect of treatment with compound on cell survival.

T1 sequence (O14744 whole entry): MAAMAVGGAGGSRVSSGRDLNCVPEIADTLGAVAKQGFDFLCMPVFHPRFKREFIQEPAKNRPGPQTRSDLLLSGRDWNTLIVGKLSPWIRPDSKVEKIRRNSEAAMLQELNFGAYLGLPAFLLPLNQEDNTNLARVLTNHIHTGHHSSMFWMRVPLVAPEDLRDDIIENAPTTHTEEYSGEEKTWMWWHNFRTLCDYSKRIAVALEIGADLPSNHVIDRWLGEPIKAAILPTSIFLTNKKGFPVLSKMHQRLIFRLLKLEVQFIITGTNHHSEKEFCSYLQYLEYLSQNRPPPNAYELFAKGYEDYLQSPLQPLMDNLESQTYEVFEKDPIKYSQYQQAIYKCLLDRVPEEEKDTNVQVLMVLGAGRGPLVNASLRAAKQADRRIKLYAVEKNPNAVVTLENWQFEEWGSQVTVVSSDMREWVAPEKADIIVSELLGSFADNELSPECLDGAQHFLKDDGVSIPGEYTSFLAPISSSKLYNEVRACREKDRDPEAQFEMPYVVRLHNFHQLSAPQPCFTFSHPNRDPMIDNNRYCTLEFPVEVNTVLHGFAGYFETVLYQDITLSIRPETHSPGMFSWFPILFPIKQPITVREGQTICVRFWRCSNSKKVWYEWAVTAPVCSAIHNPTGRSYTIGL
T1 sequence (Q9BQA1 whole entry partner): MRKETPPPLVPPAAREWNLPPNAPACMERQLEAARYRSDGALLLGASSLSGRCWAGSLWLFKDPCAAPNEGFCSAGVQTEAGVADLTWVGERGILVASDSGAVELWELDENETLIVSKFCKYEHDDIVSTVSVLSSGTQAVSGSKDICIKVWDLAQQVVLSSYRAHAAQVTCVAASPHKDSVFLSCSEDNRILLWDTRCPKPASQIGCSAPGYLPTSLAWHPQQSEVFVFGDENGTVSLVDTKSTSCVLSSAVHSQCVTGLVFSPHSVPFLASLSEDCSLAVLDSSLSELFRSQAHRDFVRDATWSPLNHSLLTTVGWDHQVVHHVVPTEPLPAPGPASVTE

On to `C[C@@H]1CC[C@@H](c2ccc(F)nc2)N(C(=O)C(=O)Nc2cncc(C(N)=O)c2)C1` (racemic) [Compound 276, rac-5-{2-[(2R,5S)-2-(6-Fluoropyridin-3-yl)-5-methylpiperidin-1-yl]-2-oxoacetamido}pyridine-3-carboxamide], for which the IC50 in assay [1] was 50 to 500 nM; in assay [2], 50 to 500 nM; in assay [3], under 50 nM; in assay [4], over 1000 nM; in assay [5], 100 to 1000 nM; in assay [6], over 10000 nM. In addition, in assay [5], the MTAP intact/deleted ratio entry is “A (an IC50 ratio greater than or equal to 10 fold)”.
In the case of `C[C@@H]1CC[C@@H](c2ccc3c(c2)CCC3)N(C(=O)C(=O)Nc2cncc(C(N)=O)c2)C1` (racemic) [Compound 277, rac-5-{2-[(2R,5S)-2-(2,3-Dihydro-1H-inden-5-yl)-5-methylpiperidin-1-yl]-2-oxoacetamido}pyridine-3-carboxamide], the IC50 in assay [1] is 50 to 500 nM; in assay [2], 50 to 500 nM; in assay [3] it was under 50 nM; in assay [4], over 1000 nM; in assay [5] it was 100 to 1000 nM; in assay [6] it was 1000 to 10000 nM. Moreover, the MTAP intact/deleted ratio entry in assay [5] is “A (an IC50 ratio greater than or equal to 10 fold)”.
Turning to `C[C@@H]1CC[C@@H](c2cccc(OC(F)(F)F)c2)N(C(=O)C(=O)Nc2cncc(C(N)=O)c2)C1` (racemic) [Compound 279, rac-5-{2-[(2R,5S)-5-Methyl-2-[3-(trifluoromethoxy)phenyl]piperidin-1-yl]-2-oxoacetamido}pyridine-3-carboxamide], the IC50 is 50 to 500 nM in assay [1]; 50 to 500 nM in assay [2]; under 50 nM in assay [3]; over 1000 nM in assay [4]; 100 to 1000 nM in assay [5]; 1000 to 10000 nM in assay [6]. Moreover, the MTAP intact/deleted ratio entry in assay [5] is “A (an IC50 ratio greater than or equal to 10 fold)”.
In the case of `C[C@@H]1CC[C@@H](c2ccc(Cl)c(N)c2)N(C(=O)C(=O)Nc2cncc(C(N)=O)c2)C1` (racemic) [Compound 280, rac-5-{2-[(2R,5S)-2-(3-Amino-4-chlorophenyl)-5-methylpiperidin-1-yl]-2-oxoacetamido}pyridine-3-carboxamide], the IC50 in assay [1] was 50 to 500 nM; in assay [2] it was 50 to 500 nM; in assay [3] it was under 50 nM; in assay [4], over 1000 nM; in assay [5], 100 to 1000 nM; in assay [6] it was 1000 to 10000 nM. In addition, the MTAP intact/deleted ratio entry in assay [5] is “A (an IC50 ratio greater than or equal to 10 fold)”.
For `C[C@@H]1CC[C@@H](c2ccc3c(c2)CCO3)N(C(=O)C(=O)Nc2cncc(C(N)=O)c2)C1` (racemic) [Compound 282, rac-5-{2-[(2R,5S)-2-(2,3-Dihydro-1-benzofuran-5-yl)-5-methylpiperidin-1-yl]-2-oxoacetamido}pyridine-3-carboxamide], the IC50 in assay [1] was over 500 nM; in assay [2], over 500 nM; in assay [3], 50 to 500 nM; in assay [4], over 1000 nM; in assay [5] it was 100 to 1000 nM; in assay [6], over 10000 nM. Also, the MTAP intact/deleted ratio result in assay [5] was “A (an IC50 ratio greater than or equal to 10 fold)”.
For the molecule `Cc1cc(NC(=O)C(=O)N2C[C@H](C(N)=O)CC[C@H]2c2ccccc2)cnc1N` (racemic) [Compound 315], the IC50 was 50 to 500 nM in assay [1]; 50 to 500 nM in assay [2]; 50 to 500 nM in assay [3]; over 1000 nM in assay [4]; 100 to 1000 nM in assay [5]; over 10000 nM in assay [6]. Moreover, the MTAP intact/deleted ratio result in assay [5] is recorded as “A (an IC50 ratio greater than or equal to 10 fold)”.
Regarding `NC(=O)c1cncc(NC(=O)C(=O)N2C[C@@H](CC(F)(F)F)CC[C@H]2c2ccccc2)c1` (racemic) [Compound 318, 5-[[2-Oxo-2-[(2R,5S)-2-phenyl-5-(2,2,2-trifluoroethyl)-1-piperidyl]acetyl]amino]pyridine-3-carboxamide], the IC50 is over 500 nM in assay [1]; over 500 nM in assay [2]; 50 to 500 nM in assay [3]; over 1000 nM in assay [4]; over 1000 nM in assay [5]; over 10000 nM in assay [6]. Besides, the MTAP intact/deleted ratio result in assay [5] was “C (an IC50 ratio of less than 3 fold)”.
Regarding `C[C@@H]1CC[C@@H](c2ccc(Cl)c(F)c2)N(C(=O)C(=O)Nc2cncc(C(N)=O)c2)C1` (racemic) [Compound 327, rac-5-{2-[(2R,5S)-2-(4-Chloro-3-fluorophenyl)-5-methylpiperidin-1-yl]-2-oxoacetamido}pyridine-3-carboxamide], the IC50 in assay [1] was 50 to 500 nM; in assay [2] it was 50 to 500 nM; in assay [3], 50 to 500 nM; in assay [4] it was over 1000 nM; in assay [5] it was under 100 nM; in assay [6] it was 1000 to 10000 nM. In addition, the MTAP intact/deleted ratio entry in assay [5] is “A (an IC50 ratio greater than or equal to 10 fold)”.
As to `C[C@@H]1CC[C@@H](c2ccc(Cl)c(C(F)(F)F)c2)N(C(=O)C(=O)Nc2cncc(C(N)=O)c2)C1` (racemic) [Compound 337, rac-5-{2-[(2R,5S)-2-[4-Chloro-3-(trifluoromethyl)phenyl]-5-methylpiperidin-1-yl]-2-oxoacetamido}pyridine-3-carboxamide], the IC50 is over 500 nM in assay [1]; 50 to 500 nM in assay [2]; 50 to 500 nM in assay [3]; over 1000 nM in assay [4]; 100 to 1000 nM in assay [5]; 1000 to 10000 nM in assay [6]. Also, the MTAP intact/deleted ratio result in assay [5] is given as “A (an IC50 ratio greater than or equal to 10 fold)”.
`C[C@@H]1CC[C@@H](c2ccc(F)c(Cl)c2)N(C(=O)C(=O)Nc2cncc(C(N)=O)c2)C1` (racemic) [Compound 338, rac-5-{2-[(2R,5S)-2-(3-Chloro-4-fluorophenyl)-5-methylpiperidin-1-yl]-2-oxoacetamido}pyridine-3-carboxamide]: the IC50 in assay [1] was 50 to 500 nM; in assay [2] it was 50 to 500 nM; in assay [3] it was 50 to 500 nM; in assay [4] it was over 1000 nM; in assay [5] it was under 100 nM; in assay [6] it was 1000 to 10000 nM. Also, in assay [5], the MTAP intact/deleted ratio result was “A (an IC50 ratio greater than or equal to 10 fold)”.
On to `C[C@@H]1CC[C@@H](c2ccc3c(c2)CCCO3)N(C(=O)C(=O)Nc2cncc(C(N)=O)c2)C1` (racemic) [Compound 341, rac-5-{2-[(2R,5S)-2-(3,4-Dihydro-2H-1-benzopyran-6-yl)-5-methylpiperidin-1-yl]-2-oxoacetamido}pyridine-3-carboxamide], for which the IC50 is 50 to 500 nM in assay [1]; 50 to 500 nM in assay [2]; 50 to 500 nM in assay [3]; over 1000 nM in assay [4]; under 100 nM in assay [5]; 1000 to 10000 nM in assay [6]. For the same molecule, the MTAP intact/deleted ratio result in assay [5] was “A (an IC50 ratio greater than or equal to 10 fold)”.
On to `NC(=O)c1cncc(NC(=O)C(=O)N2C[C@@H](CC(F)(F)F)CC[C@@H]2c2ccccc2)c1` (racemic) [Compound 342, 5-[[2-Oxo-2-[(2S,5S)-2-phenyl-5-(2,2,2-trifluoroethyl)-1-piperidyl]acetyl]amino]pyridine-3-carboxamide], for which the IC50 in assay [1] was 50 to 500 nM; in assay [2], over 500 nM; in assay [3] it was 50 to 500 nM; in assay [4], over 1000 nM; in assay [5], 100 to 1000 nM; in assay [6], over 10000 nM. In assay [5], the MTAP intact/deleted ratio entry is on record as “A (an IC50 ratio greater than or equal to 10 fold)”.
Take `NC(=O)c1cncc(NC(=O)C(=O)N2C[C@@H](O)CC[C@@H]2c2ccccc2)c1` (racemic) [Compound 349, 5-[[2-[(2R,5S)-5-Hydroxy-2-phenyl-1-piperidyl]-2-oxo-acetyl]amino]pyridine-3-carboxamide]: the IC50 in assay [1] was over 500 nM; in assay [2] it was over 500 nM; in assay [3], 50 to 500 nM; in assay [4], over 1000 nM; in assay [5], over 1000 nM; in assay [6], over 10000 nM. In addition, the MTAP intact/deleted ratio result in assay [5] is reported as “C* (an IC50 ratio of less than 3 fold)”.
For `C[C@@H]1CC[C@@H](c2ccc3c(c2)OCC3)N(C(=O)C(=O)Nc2cncc(C(N)=O)c2)C1` (racemic) [Compound 405, rac-5-{2-[(2R,5S)-2-(2,3-Dihydro-1-benzofuran-6-yl)-5-methylpiperidin-1-yl]-2-oxoacetamido}pyridine-3-carboxamide], the IC50 in assay [1] was 50 to 500 nM; in assay [2], 50 to 500 nM; in assay [3], 50 to 500 nM; in assay [4], over 1000 nM; in assay [5], under 100 nM; in assay [6], 1000 to 10000 nM. The MTAP intact/deleted ratio entry in assay [5] is given as “A (an IC50 ratio greater than or equal to 10 fold)”.

For the origin of these results see US11999727B2 (Tango Therapeutics, Inc., priority 2020, dated 2024).
